From US7692030B2, “Conjugates of artemisinin-related endoperoxides and hydrazone derivatives for the treatment of cancer” (University of Washington, priority 2006, dated 2010)

How the values were obtained:
Format in all cases: cell-based
RXF 393 = assay: NCI DTP human tumor cell line screen (SRB); details: Renal Cancer, 10 μM, 48 h
Procedure, shortened: (§1)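 After seeding at 5,000–40,000 cells/well, plates sat 24 h before a Tz plate was fixed and compound (10 μM final, from DMSO stock) was added. Incubation continued 48 h; cells were TCA-fixed, SRB-stained and read at 515 nm.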

IGROV1 = assay: NCI DTP human tumor cell line screen (SRB); details: Ovarian Cancer, 10 μM, 48 h
Procedure, shortened: as §1

DU-145 = assay: NCI DTP human tumor cell line screen (SRB); details: Prostate Cancer, 10 μM, 48 h
Procedure, shortened: as §1

A549/ATCC = assay: NCI DTP human tumor cell line screen (SRB); details: Non-Small Cell Lung Cancer, 10 μM, 48 h
Procedure, shortened: as §1

[1] = system: DAOY medulloblastoma cells; assay: DAOY medulloblastoma cells, MTT assay and light microscopy
Description: The compound ART-Phe-Sal was tested on DAOY medulloblastoma cells using the MTT assay. DAOY Medulloblastoma cells (5,000 cells/200 μL) was seeded on a 96 well plate and incubated for 24 h at 37° C. Cell culture medium was removed after 24 h and 150 μL of medium with treatment was added. Each experimental treatment had holo-Tf (20 μg/well). Treatment assay was viewed under light microscope after 24 h.
Treatment medium was removed after 48 h, and 100 μL of cell medium was added. MTT Reagent (10 μL, 12 mM) was added to each well. This solution was incubated at 37° C. for 4 h. Isopropanol (100 μL) was added to each well to lyse the cells, which were then incubated at 4° C. for 30 m. After incubation each well was plunged (3×200 μL) to ensure the cells were lysed. The incubated medium with MTT reagent was then centrifuged at 13,000 RPM in an eppendorph centrifuge for 3 minutes at room temperature. 100 μL of supernatant was read in a plate reader at λ=570 nm. FIG. 13 compares the effect of dihydroartemisinin (DHA) and ART-Phe-Sal on DAOY medulloblastoma cell line. The concentration of holo-Tf was 1.7 μM.

SMILES | Growth Percent (RXF 393) [%] | Growth Percent (IGROV1) [%] | Growth Percent (DU-145) [%] | Growth Percent (A549/ATCC) [%] | activity against DAOY medulloblastoma cells ([1]; FIG. 13, MTT assay, 48 h treatment, holo-Tf 1.7 μM) | cell shrinkage under light microscope ([1]; after 24 h treatment, each treatment had holo-Tf (20 μg/well))
Cc1ncc(CO)c(C=NNC(=O)c2ccc(COC3OC4OC5(C)CCC6C(C)CCC(C3C)C46OO5)cc2)c1O (stereo not drawn) [ART-Phe-Pyridoxal, N′-(5-hydroxy-3-hydroxymethyl-2-methyl-4-pyridylidene)-4-(dihydroxyartemisinin-methyl)-phenyl carbohydrazide] | 35.07 | 1.58 | −9.65 | 26.36 |  | 
CC1CCC2C(C)C(OCc3ccc(C(=O)NN=Cc4ccccc4O)cc3)OC3OC4(C)CCC1C32OO4 (stereo not drawn) [ART-Phe-Sal, N′-(2-hydroxybenzylidene)-4-(dihydroxyartemisinin-methyl)-phenyl carbohydrazide] |  |  |  |  | active against DAOY medulloblastoma cells | Moderate cell shrinkage
